Source: patent publication US20260240878A1, “PTP1B/TC-PTP DUAL INHIBITORS AND PROTEIN DEGRADERS” (Purdue Research Foundation, priority 2023, published 2026)
*1 amine or outer side, *2 acyl side, *3 side chain or, on linkers, in order; H or OH if unused. Where a SMILES comes first, the peptide text is derived from it. [ ]: non-standard residue; d: D form. The star is where a group is joined. NHCH2(1,3-C6H4)CH2CO = O=C(Cc1cccc(CN[*:1])c1)[*:2]; F2Pmp = N[C@@H](Cc1ccc(C(F)(F)P(=O)(O)O)cc1)C(=O)O; Phenylacetyl(4-OH,3-OMe) = COc1cc(CC(=O)*)ccc1O; Benzoyl(3-Br,4-Me) = Cc1ccc(C(=O)*)cc1Br; X1 = Cc1ncsc1-c1ccc([C@H](C)N*)cc1; Hyp = O=C(O)[C@@H]1C[C@@H](O)CN1; Tle = CC(C)(C)[C@H](N)C(=O)O

Columns and labels:
MC38 cells = assay: MHC-I expression in MC38 cells by flow cytometry; format: cell-based; conditions: 500 nM 16 hours, then mouse IFN-γ 48 hours
Experimental: Mouse MHC-I complex was stained with mouse H2K(b)/H2D(b) antibody and measured by flow cytometry.
After incubation, MC38 cells were trypsinized and washed in PBS+2% FBS, stained with Alexa Fluor® 647 anti-mouse H-2Kb/H-2Db Antibody against mouse MHC-I complex and then analyzed on a BD Fortessa LSR flow cytometry cell analyzer.

MC38 syngeneic tumor = MC38 syngeneic tumor study; format: in vivo, mouse
Experimental: Quantification was performed based on six representative images from six sections.
For MC38 syngeneic tumor study, 12 weeks C57BL6 female mice were injected subcutaneously with 10^6 MC38 cells for tumor growth. When tumors reached an average volume of 200 mm^3, mice were tumor size-matched and randomly assigned to different experimental groups for experiments. Mice were injected intraperitoneally with saline or 25 or 50 mg/kg compound 47 daily. Tumor sizes and animal weights were measured twice per week (FIGS. 5B-5C). Tumor volume (mm^3)=(length×width^2)/2. At the end of the experiments, mice were euthanized, and tumors were collected for analysis.

PTP1B and TC-PTP = assay: PTP1B/TC-PTP degradation and pJAK1/2 elevation in MEF cells; format: cell-based, mouse; conditions: 500 nM, 16 hours
Experimental: Deletion of TC-PTP or PTP1B abolished the compound 47-induced phosphorylation of the TC-PTP substrate JAK1 or the PTP1B substrate JAK2. Thus, compound 47 efficiently amplifies cellular […] signaling by degrading PTP1B and TC-PTP. U2OS cells were treated with DMSO or 0.2 μM compound 47 for 16 hours and stimulated with 20 ng/ml IFN-γ for 30 minutes. […] DAPI was used to stain the cell nucleus.
The target engagement by compound 47 inside the cell was ascertained. As negative regulators of IFN-γ signaling, PTP1B and TC-PTP dephosphorylate JAK2 at Y1007/Y1008 and JAK1 at Y1034/Y1035, respectively. In addition, TC-PTP can also directly dephosphorylate STAT family members, including STAT1 and STAT3, in the nucleus to comprehensively attenuate IFN signaling. […] In contrast, the addition of compound 47 to PTP1B^−/− MEF cells further increased the IFN-γ mediated TC-PTP substrate pJAK1/Y1034/Y1035 level with no alteration of PTP1B substrate JAK2/Y1007/Y1008 phosphorylation.

PTP1B = target: T1, PTP1B (Homo sapiens, UniProt P18031); assay: Degradation assay in HEK293 cells (immunoblotting); format: cell-based; parameters: endogenous in cells; host or cells: HEK293; conditions: 0.2 μM degrader, 16 hours
T1 sequence (P18031 1-435): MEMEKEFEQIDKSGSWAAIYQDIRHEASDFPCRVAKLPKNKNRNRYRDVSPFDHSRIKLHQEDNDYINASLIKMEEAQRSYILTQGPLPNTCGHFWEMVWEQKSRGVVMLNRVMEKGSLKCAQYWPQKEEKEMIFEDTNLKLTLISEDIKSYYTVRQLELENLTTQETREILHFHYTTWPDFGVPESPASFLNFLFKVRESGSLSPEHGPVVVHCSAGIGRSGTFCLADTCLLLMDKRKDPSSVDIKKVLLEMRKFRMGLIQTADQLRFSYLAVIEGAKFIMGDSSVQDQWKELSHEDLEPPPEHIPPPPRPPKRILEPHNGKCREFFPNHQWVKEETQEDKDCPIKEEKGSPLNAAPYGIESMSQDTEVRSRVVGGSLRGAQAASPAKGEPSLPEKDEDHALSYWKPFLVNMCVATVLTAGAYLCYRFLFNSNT

TC-PTP [1] = target: T2, TC-PTP (Homo sapiens, UniProt P17706); assay: Degradation assay in HEK293 cells (immunoblotting); format: cell-based; parameters: endogenous in cells; host or cells: HEK293; conditions: 0.2 μM degrader, 16 hours, read-out: % Protein Degradation TC-PTP
T2 sequence (P17706 1-415): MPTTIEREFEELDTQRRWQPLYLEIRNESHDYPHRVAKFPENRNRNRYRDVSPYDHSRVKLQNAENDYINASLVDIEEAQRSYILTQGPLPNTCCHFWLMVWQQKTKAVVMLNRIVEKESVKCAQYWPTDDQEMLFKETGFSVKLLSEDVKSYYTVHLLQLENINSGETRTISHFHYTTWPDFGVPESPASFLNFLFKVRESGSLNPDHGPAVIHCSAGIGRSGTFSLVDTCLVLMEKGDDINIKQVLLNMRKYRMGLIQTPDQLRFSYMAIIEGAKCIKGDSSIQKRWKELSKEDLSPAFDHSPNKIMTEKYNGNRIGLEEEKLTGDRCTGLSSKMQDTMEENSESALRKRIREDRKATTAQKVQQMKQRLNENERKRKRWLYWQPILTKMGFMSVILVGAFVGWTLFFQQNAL

TC-PTP [2] = target: T2, TC-PTP; assay: Degradation assay in HEK293 cells (immunoblotting); format: cell-based; parameters: Degradation assay was conducted in HEK293 cells with 1 μM degrader and 24 hours incubation; endogenous in cells; host or cells: HEK293; conditions: 16 hours, dose response

COc1cc(CC(=O)N[C@@H](Cc2ccccc2)C(=O)N[C@@H](Cc2ccc(C(F)(F)P(=O)(O)O)cc2)C(=O)N[C@@H](CCCCNC(=O)c2ccc(C)c(Br)c2)C(=O)NCc2cccc(CC(=O)N[C@H](C(=O)N3C[C@H](O)C[C@H]3C(=O)N[C@@H](C)c3ccc(-c4scnc4C)cc3)C(C)(C)C)c2)ccc1O [Compound 47, ((4-((S)-3-(((S)-6-(3-bromo-4-methylbenzamido)-1-((3-(2-(((S)-1-((2S,4R)-4-hydroxy-2-(((S)-1-(4-(4-methylthiazol-5-yl)phenyl)ethyl)carbamoyl)pyrrolidin-1-yl)-3,3-dimethyl-1-oxobutan-2-yl)amino)-2-oxoethyl)benzyl)amino)-1-oxohexan-2-yl)amino)-2-((S)-2-(2-(4-hydroxy-3-methoxyphenyl)acetamido)-3-phenylpropanamido)-3-oxopropyl)phenyl)difluoromethyl)phosphonic Acid] ({Phenylacetyl(4-OH,3-OMe)}-F[F2Pmp]K(Benzoyl(3-Br,4-Me))[NHCH2(1,3-C6H4)CH2CO][Tle][Hyp]-X1)
MHC-I expression (MC38 cells): elevated expression of MHC-I
CD8 T cell infiltration of tumor (CD8α IHC) (MC38 syngeneic tumor; 25 mg/kg): high level of CD8-T cell infiltration
MC38 tumor growth (MC38 syngeneic tumor; 25 and 50 mg/kg i.p. daily, ten days): significantly inhibits MC38 tumor growth
PTP1B and TC-PTP degradation in vivo (MC38 tumor) (MC38 syngeneic tumor; 25 or 50 mg/kg): induces PTP1B and TC-PTP degradation in vivo
IFN-γ stimulated JAK2 and JAK1 phosphorylation (PTP1B and TC-PTP): augmented
PTP1B and TC-PTP removal (PTP1B and TC-PTP): complete removal
% Protein Degradation PTP1B (PTP1B): 95%
percent TC-PTP degradation at 0.2 µM (TC-PTP [1]): 92%
TC-PTP degradation (TC-PTP [2]): dose-dependently induced degradation of TC-PTP
